Measured values as given in publication PMC11822212, “High-throughput screening identifies Aurora kinase B as a critical therapeutic target for Merkel cell carcinoma” (Nature Communications, 2025).

Assays:
MKL-2 cells (VP-MCC) = assay type: cell-based, human
Description: (§1) A non-targeting control (Silencer Select Negative Control No. 2 siRNA) and a positive control (AllStars Cell Death Control siRNA) were used as controls. Lipofectamine RNAiMax (Thermo Fisher Scientific, Grand Island, NY) was obtained as the transfection reagent. […] Three siRNAs per gene were arrayed in 384 well plates, one siRNA per well. […] Cell viability was measured by CellTiter-Glo assay following the manufacturer's instructions (G7572; Promega, Madison, WI, USA) 96 h after siRNA transfection. Assay plates were measured using BMG Pherastar plate reader Three different siRNAs (sequences: [NT], and [NT] targeting INCENP as well as negative non-targeting siRNA control were purchased from Thermo Fisher Scientific (Grand Island, NY).

MCC26 cells (VN-MCC) = assay type: cell-based, human
Description: as §1

Row | Substance | Percent viability (MKL-2 cells (VP-MCC)) [%] | Percent viability (MCC26 cells (VN-MCC)) [%]
1 | UGAAUGUAGAGAUGCGGUG (chemistry not given here) | 74.1 | 98.4
2 | GCUUGUACCUCAUAUCAGAtt (GCUUGUACCUCAUAUCAGATT; chemistry not given here) | 48.4 | 90.4
3 | UAUUGUUGGUUUCCUUUGC (chemistry not given here) | 92.8 | 96.2
4 | AGAUCAACCCAGAUAACUAtt (AGAUCAACCCAGAUAACUATT; chemistry not given here) | 48.5 | 73.1
5 | AGUCCUUUAUUAAGCGCAAtt (AGUCCUUUAUUAAGCGCAATT; chemistry not given here) | 80.2 | 103.7
